Results from US9340577B2, “HLA binding motifs and peptides and their uses” (priority 1992, dated 2016).
Like-named read-outs stand apart in the source and are kept apart here. No end group written: not given here.

What was measured:
Assay in all cases: biochemical
B*0701 = B*0701 (Homo sapiens, UniProt P01889)
B*0702 (B*0701) = B*0702 (B*0701) (Homo sapiens, UniProt P01889); format: binding; conditions: Table 25; given as whole numbers, no unit
B*5401 = B*5401 (Homo sapiens, UniProt P01889, A329T/C349S/D138N/D201E/E176V/E187T/E204Q/E69G/I76V/K202T/L119W/R155S/R180L/S121T/S35A/S48A/V127L/V306I/V36M/Y140L)
HLA-A1 (A*0101) = HLA-A1 (A*0101) (Homo sapiens, UniProt P04439, A114D/A174V/A182V/D101N/D185E/E176A/E190D/L180R/Q94H/R68K/S129P/T187R/V100A/V91M/W191G); format: binding
A*2601 = A*2601 (Homo sapiens, UniProt P04439, A114D/A173T/A270S/D101N/D185E/E277Q/E87N/F33Y/G231S/I121R/I218V/K168Q/L180W/L300P/L318F/P208A/P217A/Q86R/Q94H/R138Q/S129P/T187R/T323A/T345S/V100A/V358M); format: binding
A*2902 = A*2902 (Homo sapiens, UniProt P04439, A270S/D101N/D185E/E176V/E277Q/E87Q/F33T/G231S/H175R/I121M/I218V/I322F/K168Q/L300P/L318F/M331R/P208A/P217A/Q86L/T323A/T345S/V100A/V358M); format: binding
A*3002 = A*3002 (Homo sapiens, UniProt P04439, D101N/D140H/D185E/E176R/F33S/G80R/H175R/K168Q/Q94H/R138E/R41S/V100E); format: binding
[1] = B*0701 (nM), Binding of peptides to B7-like supermotif alleles, Table 36

Row | Sequence | IC50 (HLA-A1 (A*0101)) [nM] | IC50 (A*2601) [nM] | IC50 (A*2902) [nM] | IC50 (A*3002) [nM] | other results
1 | LPKREPLDV [15.177] |  |  |  |  | IC50 (B*0701; [1]): 8310 nM
2 | LPNLEEVAL [15.049] |  |  |  |  | IC50 (B*0701; [1]): 1500 nM
3 | MPRGVVVTL |  |  |  |  | B*0701 binding (B*0702 (B*0701)): 3
4 | NPAEKLRHL [15.105] |  |  |  |  | IC50 (B*0701; [1]): 509 nM
5 | NPYNTPVFAI [15.255] |  |  |  |  | IC50 (B*5401): 6600 nM
6 | QPDDAVYKL |  |  |  |  | B*0701 binding (B*0702 (B*0701)): 0
7 | QPDKSESEL [15.092] |  |  |  |  | IC50 (B*0701; [1]): 9000 nM
8 | QVDYYGLYY [Peptide 1580.19] | 3.4 | 777 | 69 | 1150 | 
9 | RTDGNRQIIGY [Peptide 9012.0158] | 140 | > 20000 | > 20000 | 95 | 
10 | RTDPVTLDVLY [Peptide 9012.0168] | 6.7 | 2520 | 1310 | 10 | 
11 | RTTQLFEDNY [Peptide 9012.0149] | 2390 | > 20000 | 11200 | 7.4 | 
12 | SMDNPEGRY [Peptide 9012.0122] | 141 | 535 | 1440 | 11 | 
13 | SPEVIPMFSA [16.192] |  |  |  |  | IC50 (B*5401): 5620 nM
14 | SPIETVPVKL [15.253] |  |  |  |  | IC50 (B*0701; B*0701 (nM), binding of B7-like supermotif 10-mer peptides to purified HLA-B*0701): 1960 nM
15 | SPTPLLYRL [15.053] |  |  |  |  | IC50 (B*0701): 2300 nM
16 | SPWLTPRCM [15.046] |  |  |  |  | IC50 (B*0701): 651 nM
17 | TIEKLTNTGLY [Peptide 1589.45] | 78 | 12 | 15100 | 220 | 

Row | Sequence | IC50 (HLA-A1 (A*0101)) [nM] | IC50 (A*2601) [nM] | IC50 (A*2902) [nM] | IC50 (A*3002) [nM] | other results
18 | TPPLVKLWV [15.090] |  |  |  |  | IC50 (B*5401): 4820 nM
19 | TPTLAARNA [16.018] |  |  |  |  | IC50 (B*5401): 5780 nM
20 | TPTLHEYML [15.096] |  |  |  |  | IC50 (B*0701; [1]): 51 nM
21 | TSDYYIVTY [Peptide 1549.48] | 11 | 4110 | 11900 | 2200 | 
22 | VFADLRIVY [Peptide 1549.09] | > 20000 | 1800 | 2.9 | 21 | 
23 | VPGAATPYA [16.175] |  |  |  |  | IC50 (B*5401): 5780 nM
24 | VPHPNIEEVA [16.189] |  |  |  |  | IC50 (B*5401): 36 nM
25 | VPVKLKPGM [15.074] |  |  |  |  | IC50 (B*0701; [1]): 18000 nM
26 | VQEKILDLY [Peptide 86.0149] | 1440 | 8180 | 17000 | 193 | 
27 | VSDFRWYRY [Peptide 1549.43] | 24 | 3070 | 241 | 99 | 
28 | VTADLRIVY [Peptide 1549.50] | 1520 | 121 | 228 | 50 | 
29 | VTDCPYNY [Peptide 9012.0106] | 79 | > 20000 | 1450 | 1630 | 
30 | VTEFRWYRY [Peptide 1549.42] | 26 | 3150 | 256 | 92 | 
31 | VTQGLPREY [Peptide 9012.0128] | 848 | 3890 | 1010 | 1.7 | 
32 | WTSTDNKNY [Peptide 1580.31] | 163 | 4830 | > 20000 | 7310 | 
33 | YSDVRKYRY [Peptide 1549.49] | 18 | > 20000 | 209 | 275 | 
